Test results reported in ChEMBL document CHEMBL1201862, “PubChem BioAssay data set” (2004).
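Following 48 hours of exposure in 96-well plates, responses at five concentrations were used to interpolate endpoints linearly. GI50: concentration for 50% inhibition of growth.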 Active and inactive are the calls of the source. Cut-off read from the data, not from the text of the source: active = GI50 up to about 1.1 µM and inactive = higher.

Tests used:
Assay in all cases: DTP human tumour cell line panel, 48 h
HCT-15 = system: HCT-15
SNB-19 = system: SNB-19
TK-10 = system: TK-10
HCC 2998 = system: HCC 2998
NCI-H460 = system: NCI-H460
OVCAR-8 = system: OVCAR-8
SN12C = system: SN12C
A498 = system: A498
A549 = system: A549
786-0 = system: 786-0
SK-MEL-28 = system: SK-MEL-28
NCI-H23 = system: NCI-H23
M14 = system: M14
UACC-62 = system: UACC-62
U-251 = system: U-251
HL-60 = system: HL-60
SR = system: SR
CAKI-1 = system: CAKI-1

SMILES	GI50 (HCT-15) [µM]	GI50 (SNB-19)	GI50 (TK-10)	GI50 (HCC 2998)	GI50 (NCI-H460)	GI50 (OVCAR-8)	GI50 (SN12C)	GI50 (A498)	GI50 (A549)	GI50 (786-0)	GI50 (SK-MEL-28)	GI50 (NCI-H23)	GI50 (M14)	GI50 (UACC-62)	GI50 (U-251)	GI50 (HL-60)	GI50 (SR)	GI50 (CAKI-1)
C=CCC1[C@@H](C(C)(C)C(C(C)=O)C(=O)C(=O)OC)OC(C(C)(C)C)N1C(=O)OC (stereo partly drawn)	> 100	> 100 µM (inactive)	> 100 µM (inactive)	> 100 µM (inactive)	> 100 µM (inactive)	> 100 µM (inactive)	> 100 µM (inactive)	> 100 µM (inactive)	> 100 µM (inactive)	> 100 µM (inactive)	> 100 µM (inactive)	> 100 µM (inactive)	> 100 µM (inactive)	> 100 µM (inactive)	> 100 µM (inactive)	–	–	–
COc1ccc(OC)c(NCC#N)c1	> 100	> 100 µM (inactive)	> 100 µM (inactive)	> 100 µM (inactive)	> 100 µM (inactive)	> 100 µM (inactive)	> 100 µM (inactive)	> 100 µM (inactive)	> 100 µM (inactive)	> 100 µM (inactive)	> 100 µM (inactive)	> 100 µM (inactive)	> 100 µM (inactive)	> 100 µM (inactive)	> 100 µM (inactive)	> 100 µM (inactive)	–	–
O=C(CSc1nc(-c2ccccc2)c(-c2ccccc2)[nH]1)N/N=C/c1ccc([N+](=O)[O-])cc1	14	–	15.7 µM (inactive)	–	19.4 µM (inactive)	10.3 µM (inactive)	16.2 µM (inactive)	14 µM (inactive)	29.6 µM (inactive)	16.8 µM (inactive)	15.6 µM (inactive)	14.7 µM (inactive)	17.4 µM (inactive)	–	14.1 µM (inactive)	34.8 µM (inactive)	30.9 µM (inactive)	–
CC1CC2OC(=O)C3CC(O)CC(=C23)[C@@]12C[C@@H](c1ccoc1)OC2=O (stereo partly drawn)	> 100	> 100 µM (inactive)	> 100 µM (inactive)	> 100 µM (inactive)	> 100 µM (inactive)	> 100 µM (inactive)	> 100 µM (inactive)	–	> 100 µM (inactive)	> 100 µM (inactive)	> 100 µM (inactive)	> 100 µM (inactive)	> 100 µM (inactive)	> 100 µM (inactive)	> 100 µM (inactive)	> 100 µM (inactive)	> 100 µM (inactive)	–
Cc1cccc2c1Oc1cc(Cl)ccc1C2NC(=O)CN(C)C (stereo not drawn)	45.2	54 µM (inactive)	> 100 µM (inactive)	34.8 µM (inactive)	33.8 µM (inactive)	> 100 µM (inactive)	63.1 µM (inactive)	–	> 100 µM (inactive)	14.5 µM (inactive)	27.1 µM (inactive)	92 µM (inactive)	24 µM (inactive)	24.3 µM (inactive)	–	17.1 µM (inactive)	31.4 µM (inactive)	–
Cl[Si]1(Cl)Oc2ccccc2O[Si](Cl)(Cl)Oc2ccccc2O1	21	17.4 µM (inactive)	46.1 µM (inactive)	20.7 µM (inactive)	6.9 µM (inactive)	30.5 µM (inactive)	6.7 µM (inactive)	36.2 µM (inactive)	14.3 µM (inactive)	8.45 µM (inactive)	33.3 µM (inactive)	14.8 µM (inactive)	15.5 µM (inactive)	5.08 µM (inactive)	28.1 µM (inactive)	1.25 µM (inactive)	–	28.4 µM (inactive)
CC(=O)OCCOCNC(=S)N/N=C/c1cc([N+](=O)[O-])ccc1O	> 100	> 100 µM (inactive)	> 100 µM (inactive)	72.1 µM (inactive)	> 100 µM (inactive)	90.2 µM (inactive)	> 100 µM (inactive)	> 100 µM (inactive)	> 100 µM (inactive)	> 100 µM (inactive)	> 100 µM (inactive)	> 100 µM (inactive)	86.7 µM (inactive)	69.8 µM (inactive)	> 100 µM (inactive)	> 100 µM (inactive)	–	–
Cc1ccccc1NC(=O)CSc1nnc(-c2ccc(/N=C\c3ccc(Cl)cc3)cc2)o1	> 100	> 100 µM (inactive)	> 100 µM (inactive)	–	> 100 µM (inactive)	> 100 µM (inactive)	> 100 µM (inactive)	–	> 100 µM (inactive)	> 100 µM (inactive)	> 100 µM (inactive)	> 100 µM (inactive)	> 100 µM (inactive)	> 100 µM (inactive)	> 100 µM (inactive)	> 100 µM (inactive)	> 100 µM (inactive)	–
O=c1c2cc(Br)ccc2nc(CCl)n1-c1ccc(O)c([N+](=O)[O-])c1	19.7	–	18.7 µM (inactive)	19.9 µM (inactive)	34.1 µM (inactive)	19.9 µM (inactive)	18.8 µM (inactive)	20.1 µM (inactive)	22.4 µM (inactive)	16.1 µM (inactive)	17.6 µM (inactive)	16.7 µM (inactive)	22.3 µM (inactive)	26.6 µM (inactive)	38.9 µM (inactive)	23.2 µM (inactive)	–	21.7 µM (inactive)
C[P+]1(c2ccccc2)CCCCC1	> 100	> 100 µM (inactive)	> 100 µM (inactive)	> 100 µM (inactive)	> 100 µM (inactive)	> 100 µM (inactive)	> 100 µM (inactive)	> 100 µM (inactive)	> 100 µM (inactive)	> 100 µM (inactive)	> 100 µM (inactive)	> 100 µM (inactive)	> 100 µM (inactive)	> 100 µM (inactive)	> 100 µM (inactive)	–	–	> 100 µM (inactive)
Cc1nc(=O)n2c(c1C(=O)Nc1ccc(Cl)cc1)NCCC2	> 100	32 µM (inactive)	> 100 µM (inactive)	–	> 100 µM (inactive)	> 100 µM (inactive)	> 100 µM (inactive)	–	> 100 µM (inactive)	> 100 µM (inactive)	> 100 µM (inactive)	> 100 µM (inactive)	> 100 µM (inactive)	> 100 µM (inactive)	> 100 µM (inactive)	> 100 µM (inactive)	> 100 µM (inactive)	> 100 µM (inactive)
CN(/N=C/c1cccc2cccnc12)c1ccc([N+](=O)[O-])cc1	> 100	> 100 µM (inactive)	91.2 µM (inactive)	> 100 µM (inactive)	8.07 µM (inactive)	> 100 µM (inactive)	> 100 µM (inactive)	> 100 µM (inactive)	48.1 µM (inactive)	> 100 µM (inactive)	> 100 µM (inactive)	> 100 µM (inactive)	> 100 µM (inactive)	> 100 µM (inactive)	–	> 100 µM (inactive)	–	> 100 µM (inactive)
Clc1ccc(SCCSCCCCCCCCCCSCCSc2ccc(Cl)cc2)cc1	> 100	> 100 µM (inactive)	> 100 µM (inactive)	> 100 µM (inactive)	> 100 µM (inactive)	> 100 µM (inactive)	> 100 µM (inactive)	> 100 µM (inactive)	> 100 µM (inactive)	> 100 µM (inactive)	> 100 µM (inactive)	> 100 µM (inactive)	–	> 100 µM (inactive)	> 100 µM (inactive)	> 100 µM (inactive)	–	> 100 µM (inactive)
O=C1C(c2ccccc2)=[N+]([O-])c2cc([N+](=O)[O-])c(/C(Cl)=C/c3ccccc3)cc21	–	31.3 µM (inactive)	33.7 µM (inactive)	–	–	16.1 µM (inactive)	–	–	40.1 µM (inactive)	29.9 µM (inactive)	27.4 µM (inactive)	22.7 µM (inactive)	16 µM (inactive)	30.6 µM (inactive)	18.6 µM (inactive)	4.06 µM (inactive)	17.9 µM (inactive)	–
C=C1CCc2occ(C)c2C2C1C1=C(CC(C)C1=O)C1OC12C (stereo not drawn)	> 100	26.5 µM (inactive)	> 100 µM (inactive)	> 100 µM (inactive)	> 100 µM (inactive)	> 100 µM (inactive)	> 100 µM (inactive)	> 100 µM (inactive)	> 100 µM (inactive)	> 100 µM (inactive)	> 100 µM (inactive)	> 100 µM (inactive)	> 100 µM (inactive)	52 µM (inactive)	> 100 µM (inactive)	–	–	–
COc1cc2c(c(OC)c1OC)-c1ccc(OC)c(=O)cc1[C@@H](N(C)C=O)CC2	0.0752	0.0215 µM (active)	1.45 µM (inactive)	0.0168 µM (active)	< 0.0179 µM (active)	0.0218 µM (active)	0.0329 µM (active)	0.0209 µM (active)	0.0246 µM (active)	0.0277 µM (active)	< 0.01 µM (active)	0.0168 µM (active)	< 0.0122 µM (active)	0.0177 µM (active)	< 0.0163 µM (active)	0.0158 µM (active)	–	0.0304 µM (active)
CC(C)N(C(=O)C12C3C4C5(C#N)C3C1(C#N)C5C42C#N)C(C)C (stereo not drawn)	–	> 100 µM (inactive)	> 100 µM (inactive)	> 100 µM (inactive)	> 100 µM (inactive)	> 100 µM (inactive)	> 100 µM (inactive)	> 100 µM (inactive)	> 100 µM (inactive)	> 100 µM (inactive)	> 100 µM (inactive)	> 100 µM (inactive)	–	> 100 µM (inactive)	> 100 µM (inactive)	> 100 µM (inactive)	–	–
C(=N\OCc1ccccc1)/c1ncccc1C1OCCO1	> 100	> 100 µM (inactive)	> 100 µM (inactive)	–	> 100 µM (inactive)	> 100 µM (inactive)	> 100 µM (inactive)	–	> 100 µM (inactive)	> 100 µM (inactive)	> 100 µM (inactive)	> 100 µM (inactive)	> 100 µM (inactive)	> 100 µM (inactive)	> 100 µM (inactive)	> 100 µM (inactive)	> 100 µM (inactive)	> 100 µM (inactive)
